Legend:
Ba/F3 LMNA-NTRK1 cells = assay: Assay for inhibiting the proliferation of Ba/F3 LMNA-NTRK1 cells (CCK-8); format: cell-based; conditions: Mus musculus, BaF3
How it was run: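 Cells were seeded and cultured overnight, then treated with graded compound concentrations (final DMSO 0.25%) for 72 h. CCK-8 was added for 1–2 h at 37 °C and OD450 read. Survival was normalised to untreated and cell-free blank wells, and IC50 was fitted.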

MER kinase = MER kinase (Homo sapiens (Human), UniProt Q12866); assay: Assay of small molecular compounds for inhibiting the activity of MER kinase (LANCE TR-FRET); format: biochemical
Sequence of MER kinase (Q12866 21-999): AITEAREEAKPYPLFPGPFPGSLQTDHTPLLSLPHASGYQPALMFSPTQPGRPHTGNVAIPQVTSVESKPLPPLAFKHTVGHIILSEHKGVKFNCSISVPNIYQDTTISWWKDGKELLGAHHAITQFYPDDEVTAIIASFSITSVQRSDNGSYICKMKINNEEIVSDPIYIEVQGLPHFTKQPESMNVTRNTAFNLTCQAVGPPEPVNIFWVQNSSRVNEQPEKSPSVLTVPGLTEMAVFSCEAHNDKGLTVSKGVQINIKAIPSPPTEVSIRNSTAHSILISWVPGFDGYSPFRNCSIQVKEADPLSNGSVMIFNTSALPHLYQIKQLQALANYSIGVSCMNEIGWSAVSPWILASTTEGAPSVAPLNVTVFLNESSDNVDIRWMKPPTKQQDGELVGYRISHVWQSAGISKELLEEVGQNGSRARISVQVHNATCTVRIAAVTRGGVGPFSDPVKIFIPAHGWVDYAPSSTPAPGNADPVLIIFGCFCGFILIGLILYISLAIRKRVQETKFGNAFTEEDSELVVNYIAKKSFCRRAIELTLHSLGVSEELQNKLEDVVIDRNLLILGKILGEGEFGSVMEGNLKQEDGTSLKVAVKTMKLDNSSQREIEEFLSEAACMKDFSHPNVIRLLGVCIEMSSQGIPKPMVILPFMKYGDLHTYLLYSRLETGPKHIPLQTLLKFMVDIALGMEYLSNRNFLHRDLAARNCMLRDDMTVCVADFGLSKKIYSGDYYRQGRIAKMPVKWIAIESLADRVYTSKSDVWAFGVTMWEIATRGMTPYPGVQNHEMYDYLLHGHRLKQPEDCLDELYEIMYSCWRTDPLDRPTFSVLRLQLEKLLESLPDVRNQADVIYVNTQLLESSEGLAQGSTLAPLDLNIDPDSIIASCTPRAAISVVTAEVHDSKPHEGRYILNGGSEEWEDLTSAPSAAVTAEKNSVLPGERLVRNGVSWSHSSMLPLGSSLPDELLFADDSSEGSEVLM
How it was run: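 MER kinase preincubated 5 min at RT with compound (11 points, 0.042-2500 nM final), then ULight-poly GT and ATP added (4× stocks 200 nM and 20 μM) for 60 min at RT, 1% DMSO. Phosphorylation detected by LANCE TR-FRET; IC50 from % inhibition versus controls.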

MHCC97H cells = assay: Assay for inhibiting the proliferation of MHCC97H cells (CCK-8); format: cell-based; conditions: Homo sapiens
How it was run: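 Cells seeded in 96-well plates overnight, then exposed 72 h to 9 three-fold dilutions of compound (0.25% DMSO final). Viability by CCK-8 (1-2 h at 37° C., OD 450 nm), survival normalized to untreated and cell-free blanks; IC50 by curve fitting.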

IC50 (Ba/F3 LMNA-NTRK1 cells) [nM]	IC50 (MER kinase) [nM]	SMILES	IC50 (MHCC97H cells) [nM]
< 50	≤ 50	CCOc1ccn(-c2ccc(F)cc2)c(=O)c1C(=O)Nc1ccc(Oc2ccnc3cc(OCCCN(C)C4CCC4)c4c(c23)OCCO4)c(F)c1 [Example 71, N-(4-((5-(3-(cyclobutyl(methyl)amino)propoxy)-2,3-dihydro-[1,4]dioxino[2,3-f]quinolin-10-yl)oxy)-3-fluorophenyl)-4-ethoxy-1-(4-fluorophenyl)-2-oxo-1,2-dihydropyridine-3-carboxamide]	≤ 50
< 50	≤ 50	CCOc1ccn(-c2ccc(F)cc2)c(=O)c1C(=O)Nc1ccc(Oc2ccnc3cc(OCCCN4CCN(C(C)=O)CC4)c4c(c23)OCCO4)c(F)c1 [Example 50, N-(4-((5-(3-(4-acetyl-piperazin-1-yl)propoxy)-2,3-dihydro-[1,4]dioxino[2,3-f]quinolin-10-yl)oxy)-3-fluorophenyl)-4-ethoxy-1-(4-fluorophenyl)-2-oxo-1,2-dihydropyridine-3-carboxamide]	≤ 50
50 to 200	≤ 50	CCOc1ccn(-c2ccc(F)cc2)c(=O)c1C(=O)Nc1ccc(Oc2ccnc3cc(OC4CCOC4)c4c(c23)OCCO4)c(F)c1 (stereo not drawn) [Example 65, N-(4-((5-((tetrahydrofuran-3-yl)oxy)-2,3-dihydro-[1,4]dioxino[2,3-f]quinolin-10-yl)oxy)-3-fluorophenyl)-4-ethoxy-1-(4-fluorophenyl)-2-oxo-1,2-dihydropyridine-3-carboxamide]	≤ 50
< 50	≤ 50	CCOc1ccn(-c2ccc(F)cc2)c(=O)c1C(=O)Nc1ccc(Oc2ccnc3cc(OCCCN4CCOCC4)c4c(c23)OCCO4)c(Cl)c1 [Example 72, N-(4-((5-(3-morpholinopropoxy)-2,3-dihydro-[1,4]dioxino[2,3-f]quinolin-10-yl)oxy)-3-chlorophenyl)-4-ethoxy-1-(4-fluorophenyl)-2-oxo-1,2-dihydropyridine-3-carboxamide]	≤ 50
< 50	≤ 50	CCOc1ccn(-c2ccc(F)cc2)c(=O)c1C(=O)Nc1ccc(Oc2ccnc3cc(OCCO)c4c(c23)OCCO4)c(F)c1 [Example 53, N-(4-((5-(2-hydroxyethoxy)-2,3-dihydro-[1,4]dioxino[2,3-f]quinolin-10-yl)oxy)-3-fluorophenyl)-4-ethoxy-1-(4-fluorophenyl)-2-oxo-1,2-dihydropyridine-3-carboxamide]	≤ 50
< 50	≤ 50	CCOc1ccn(-c2ccc(F)cc2)c(=O)c1C(=O)Nc1ccc(Oc2ccnc3cc(OCCCN4CCS(=O)(=O)CC4)c4c(c23)OCCO4)c(F)c1 [Example 51, N-(4-((5-(3-(1,1-dioxidothiomorpholino)propoxy)-2,3-dihydro-[1,4]dioxino[2,3-f]quinolin-1 0-yl)oxy)-3-fluorophenyl)-4-ethoxy-1-(4-fluorophenyl)-2-oxo-1,2-dihydropyridine-3-carboxamide]	≤ 50
50 to 200	≤ 50	CCOc1ccn(-c2ccc(F)cc2)c(=O)c1C(=O)Nc1ccc(Oc2ccnc3cc(OC4COC4)c4c(c23)OCCO4)c(F)c1 [Example 64, N-(4-((5-((oxetan-3-yl)oxy)-2,3-dihydro-[1,4]dioxino[2,3-f]quinolin-10-yl)oxy)-3-fluorophenyl)-4-ethoxy-1-(4-fluorophenyl)-2-oxo-1,2-dihydropyridine-3-carboxamide]	50 to 200
200 to 1000	≤ 50	CCOc1ccn(-c2ccc(F)cc2)c(=O)c1C(=O)Nc1ccc(Oc2ccnc3cc(OCCCN4CCC(C)(N)CC4)c4c(c23)OCCO4)c(F)c1 [Example 68, N-(4-((5-(3-(4-amino-4-methylpiperidin-1-yl)propoxy)-2,3-dihydro-[1,4]dioxino[2,3-f]quinolin-10-yl)oxy)-3-fluorophenyl)-4-ethoxy-1-(4-fluorophenyl)-2-oxo-1,2-dihydropyridine-3-carboxamide]	200 to 1000
50 to 200	≤ 50	CCOc1ccn(-c2ccc(F)cc2)c(=O)c1C(=O)Nc1ccc(Oc2ccnc3cc(OC4CCOCC4)c4c(c23)OCCO4)c(F)c1 [Example 66, N-(4-((5-((tetrahydropyran-4-yl)oxy)-2,3-dihydro-[1,4]dioxino[2,3-f]quinolin-10-yl)oxy)-3-fluorophenyl)-4-ethoxy-1-(4-fluorophenyl)-2-oxo-1,2-dihydropyridine-3-carboxamide]	≤ 50
< 50	≤ 50	CCOc1cc2nccc(Oc3ccc(NC(=O)c4c(OCC)ccn(-c5ccc(F)cc5)c4=O)cc3F)c2c2c1OCCO2 [Example 62, N-(4-((5-ethoxy-2,3-dihydro-[1,4]dioxino[2,3-f]quinolin-10-yl)oxy)-3-fluorophenyl)-4-ethoxy-1-(4-fluorophenyl)-2-oxo-1,2-dihydropyridine-3-carboxamide]	≤ 50
< 50	≤ 50	COCCCOc1cc2nccc(Oc3ccc(NC(=O)c4cn(C)c(=O)n(-c5ccc(F)cc5)c4=O)cc3F)c2c2c1OCCO2 [Example 80, N-(3-fluoro-4-((5-(3-methoxypropoxy)-2,3-dihydro-[1,4]dioxino[2,3-f]quinolin-10-yl)oxy)phenyl)-3-(4-fluorophenyl)-1-methyl-2,4-dioxo-1,2,3,4-tetrahydropyrimidine-5-carboxamide]	≤ 50
< 50	≤ 50	CN1CCN(CCCOc2cc3nccc(Oc4ccc(NC(=O)c5cn(C)c(=O)n(-c6ccc(F)cc6)c5=O)cc4F)c3c3c2OCCO3)CC1 [Example 74, N-(3-fluoro-4-((5-(3-(4-methylpiperazin-1-yl)propoxy)-2,3-dihydro-[1,4]dioxino[2,3-f]quinolin-10-yl)oxy)phenyl)-3-(4-fluorophenyl)-1-methyl-2,4-dioxo-1,2,3,4-tetrahydropyrimidine-5-carboxamide]	50 to 200
< 50	≤ 50	CCOc1ccn(-c2ccc(F)cc2)c(=O)c1C(=O)Nc1ccc(Oc2ccnc3cc(OCCCN4CCN(C)CC4)c4c(c23)OCCO4)c(F)c1 [Example 49, N-(3-fluoro-4-((5-(3-(4-methylpiperazin-1-yl)propoxy)-2,3-dihydro-[1,4]dioxino[2,3-f]quinolin-10-yl)oxy)phenyl)-1-(4-fluorophenyl)-4-ethoxy-2-oxo-1,2-dihydropyridine-3-carboxamide]	≤ 50
< 50	≤ 50	CCOc1ccn(-c2ccc(F)cc2)c(=O)c1C(=O)Nc1ccc(Oc2ccnc3cc(OCCCN4CCCC4)c4c(c23)OCCO4)c(F)c1 [Example 52, N-(4-((5-(3-(pyrrolidin-1-yl)propoxy)-2,3-dihydro-[1,4]dioxino[2,3-f]quinolin-10-yl)oxy)-3-fluorophenyl)-4-ethoxy-1-(4-fluorophenyl)-2-oxo-1,2-dihydropyridine-3-carboxamide]	≤ 50
< 50	≤ 50	CCOc1ccn(-c2ccc(F)cc2)c(=O)c1C(=O)Nc1ccc(Oc2ccnc3cc(OCCCC#N)c4c(c23)OCCO4)c(F)c1 [Example 57, N-(4-((5-(3-cyanopropoxy)-2,3-dihydro-[1,4]dioxino[2,3-f]quinolin-10-yl)oxy)-3-fluorophenyl)-4-ethoxy-1-(4-fluorophenyl)-2-oxo-1,2-dihydropyridine-3-carboxamide]	≤ 50
< 50	≤ 50	COCCn1cc(C(=O)Nc2ccc(Oc3ccnc4cc(OC)c5c(c34)OCCO5)c(F)c2)c(=O)n(-c2ccc(F)cc2)c1=O [Example 46, N-(3-fluoro-4-((5-methoxy-2,3-dihydro-[1,4]dioxino[2,3-f]quinolin-10-yl)oxy)phenyl)-3-(4-fluorophenyl)-1-(2-methoxyethyl)-2,4-dioxo-1,2,3,4-tetrahydropyrimidine-5-carboxamide]	≤ 50
